# Assay results published in PMC12301332, “Biased antagonism of a series of bicyclic CXCR2 intracellular allosteric modulators” (Frontiers in Pharmacology, 2025).
# Assays:
# [1] = molecular target: T1, CXCR2 (Homo sapiens, UniProt P25025); test: NanoBRET-based G protein activation inhibition assay (REGA-SIGN Gαi1 dissociation) in HEK293A.CXCR2 cells; assay type: cell-based; settings: n = 3; for IC50: mean; for Imax Gαi1 (maximum observed inhibitory effect): normalized to Imax of navarixin = 100%
# T1 construct: expressed in transfected cells
# T1 sequence (P25025 1-360): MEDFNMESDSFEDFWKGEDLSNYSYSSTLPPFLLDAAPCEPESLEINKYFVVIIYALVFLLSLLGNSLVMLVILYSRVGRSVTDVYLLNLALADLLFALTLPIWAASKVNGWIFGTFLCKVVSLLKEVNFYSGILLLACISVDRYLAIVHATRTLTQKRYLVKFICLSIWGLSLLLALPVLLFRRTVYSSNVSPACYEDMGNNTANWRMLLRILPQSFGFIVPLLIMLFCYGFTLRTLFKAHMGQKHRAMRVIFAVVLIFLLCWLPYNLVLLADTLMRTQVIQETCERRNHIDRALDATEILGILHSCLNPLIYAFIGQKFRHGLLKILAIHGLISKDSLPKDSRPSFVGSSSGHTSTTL
# Procedure: Cells were trypsinized and resuspended at 3 × 10^5 cell/mL in the growth medium, whereafter they were incubated for 2 hours at RT. Cells were transfected in suspension using FuGENE® HD Transfection Reagent at a 3:1 reagent to DNA ratio in Opti-MEMTM I Reduced-Serum Medium, with the final DNA concentration of 1 μg/μL. The transfection mixture was incubated for 10 min at RT before adding it to the cell suspension. Transfected cells were seeded at 3.0 × 10^4 cells/well in a white, clear, flat-bottom 96-well plate coated with 100 μg/mL poly-D-lysin ([…], Sigma Aldrich) and incubated for 48 h at 37°C and 5% CO2. […] (2023)]. Following the 48-h incubation period, cells were washed with the assay buffer. Compounds were serially diluted in 1:500 Nano-Glo® Vivazine^TM working solution (#N2581, Promega), and 90 μL of compound/Vivazine mix was added, followed by incubation for 45 min at 37°C and 5% CO2. Plates were transferred to the FLIPR Penta system (Molecular Devices) at 37°C, and all steps onward are automated and performed by the FLIPR Penta system. After a 10-min equilibration period, the baseline BRET signal was determined by five consecutive reads followed by automatic administration of 10 μL of 10× ligand (Table 1) to the cell plate. Changes in the BRET signal was measured for 10 min, with each read spaced by 2.5 s. […] BRET ratios were extracted from ScreenWorks software (Molecular Devices) and represent the ratio between the acceptor emission of […]2 or mNG (G protein or β-arrestin recruitment, respectively) and NLuc donor emission. The basal BRET ratio was defined as the average BRET ratio of the five consecutive readings preceding ligand addition. Changes in BRET values post ligand administration (ΔBRET) were calculated for each well as a percentage difference to the previously defined basal BRET ratio. Average ΔBRET values were baseline corrected by subtracting the average negative control BRET ratio (unstimulated condition). […] AUCs were normalized to the positive control (stimulated condition); whereafter, dose-response curves were fitted to log (inhibitor) vs response (three parameters) in GraphPad 10.2.0 (GraphPad Software). […] Calculation 1: calculation of the BRET signal. • 1. […] NC correctedΔBRET=Δ[…]. • 4. a. Neg AUC of NC correctedΔBRET=Gα activation read out. b. Pos AUC of NC correctedΔBRET=β-arrestin recruitment.
# [2] = molecular target: T1, CXCR2; test: NanoBRET β-arrestin1 recruitment inhibition assay (NanoLux) in HEK293A cells; assay type: cell-based; settings: n = 3; for IC50: mean, read-out: IC50 βarr1; for Imax βarr1 (maximum observed inhibitory effect): normalized to Imax of navarixin = 100%
# Procedure: Cells were trypsinized and resuspended at 3 × 10^5 cell/mL in the growth medium, whereafter they were incubated for 2 hours at RT. Cells were transfected in suspension using FuGENE® HD Transfection Reagent at a 3:1 reagent to DNA ratio in Opti-MEMTM I Reduced-Serum Medium, with the final DNA concentration of 1 μg/μL. The transfection mixture was incubated for 10 min at RT before adding it to the cell suspension. Transfected cells were seeded at 3.0 × 10^4 cells/well in a white, clear, flat-bottom 96-well plate coated with 100 μg/mL poly-D-lysin ([…], Sigma Aldrich) and incubated for 48 h at 37°C and 5% CO2. HEK293A cells were transiently co-transfected with plasmids encoding β-arrestin1 protein tagged with NLuc (donor) and CXCR2 protein tagged with mNeonGreen (mNG) acceptor in a 1:10 donor to acceptor ratio, as described previously ([Luís et al., 2022]). All subsequent steps are identical to those in “NanoBRET-based G protein activation inhibition assay,” which are described above. Measurements were acquired using a 440- to 480-nm donor emission filter (#0200-6179, Molecular Devices) and a 515- to 575-nm acceptor emission filter (#0200-6203, Molecular Devices) BRET ratios were extracted from ScreenWorks software (Molecular Devices) and represent the ratio between the acceptor emission of […]2 or mNG (G protein or β-arrestin recruitment, respectively) and NLuc donor emission. The basal BRET ratio was defined as the average BRET ratio of the five consecutive readings preceding ligand addition. Changes in BRET values post ligand administration (ΔBRET) were calculated for each well as a percentage difference to the previously defined basal BRET ratio. Average ΔBRET values were baseline corrected by subtracting the average negative control BRET ratio (unstimulated condition). […] AUCs were normalized to the positive control (stimulated condition); whereafter, dose-response curves were fitted to log (inhibitor) vs response (three parameters) in GraphPad 10.2.0 (GraphPad Software). […] Calculation 1: calculation of the BRET signal. • 1. […] NC correctedΔBRET=Δ[…]. • 4. a. Neg AUC of NC correctedΔBRET=Gα activation read out. b. Pos AUC of NC correctedΔBRET=β-arrestin recruitment.
IC50 ([1]; CXCL1 at EC80),Imax Gαi1 (maximum observed inhibitory effect) ([1]; CXCL1 at EC80),IC50 ([1]; CXCL2 at EC80),Imax Gαi1 (maximum observed inhibitory effect) ([1]; CXCL2 at EC80),IC50 ([1]; CXCL3 at EC80),Imax Gαi1 (maximum observed inhibitory effect) ([1]; CXCL3 at EC80),IC50 ([1]; CXCL5 at EC80),Imax Gαi1 (maximum observed inhibitory effect) ([1]; CXCL5 at EC80),IC50 ([1]; CXCL6 at EC80),Imax Gαi1 (maximum observed inhibitory effect) ([1]; CXCL6 at EC80),IC50 ([1]; CXCL7 at EC80),Imax Gαi1 (maximum observed inhibitory effect) ([1]; CXCL7 at EC80),Imax Gαi1 (maximum observed inhibitory effect) ([1]; CXCL8 at EC80),Imax βarr1 (maximum observed inhibitory effect) ([2]; CXCL1 at EC80),Imax βarr1 (maximum observed inhibitory effect) ([2]; CXCL2 at EC80),Imax βarr1 (maximum observed inhibitory effect) ([2]; CXCL3 at EC80),Imax βarr1 (maximum observed inhibitory effect) ([2]; CXCL5 at EC80),Imax βarr1 (maximum observed inhibitory effect) ([2]; CXCL6 at EC80),Imax βarr1 (maximum observed inhibitory effect) ([2]; CXCL7 at EC80),Imax βarr1 (maximum observed inhibitory effect) ([2]; CXCL8 at EC80),other results,SMILES
> 15000 nM,<50%,> 15000 nM,<50%,> 15000 nM,<50%,> 15000 nM,<50%,> 15000 nM,<50%,> 15000 nM,<50%,<50%,100%,100%,100%,100%,100%,100%,100%,IC50 ([1]; CXCL8 at EC80): > 15000 nM; IC50 ([2]; CXCL1 at EC80): 3510 ± 830 nM; IC50 ([2]; CXCL2 at EC80): 2060 ± 570 nM; IC50 ([2]; CXCL3 at EC80): 4290 ± 1160 nM; IC50 ([2]; CXCL5 at EC80): 2100 ± 360 nM; IC50 ([2]; CXCL6 at EC80): 2280 ± 570 nM; IC50 ([2]; CXCL7 at EC80): 700 ± 140 nM; IC50 ([2]; CXCL8 at EC80): 4070 ± 1600 nM,CC(CO)Nc1nc(SCc2cccc(F)c2F)nc2[nH]cnc12 (centres unmarked) [MVH-15]
> 15000 nM,<50%,> 15000 nM,<50%,> 15000 nM,<50%,> 15000 nM,<50%,> 15000 nM,<50%,> 15000 nM,<50%,<50%,100%,100%,100%,100%,100%,97.6 ± 3.45%,100%,IC50 ([1]; CXCL8 at EC80): > 15000 nM; IC50 ([2]; CXCL1 at EC80): 2850 ± 680 nM; IC50 ([2]; CXCL2 at EC80): 1500 ± 180 nM; IC50 ([2]; CXCL3 at EC80): 3440 ± 750 nM; IC50 ([2]; CXCL5 at EC80): 1960 ± 530 nM; IC50 ([2]; CXCL6 at EC80): 1470 ± 200 nM; IC50 ([2]; CXCL7 at EC80): 500 ± 70 nM; IC50 ([2]; CXCL8 at EC80): 2660 ± 300 nM,CC(CO)Nc1nc(SCc2cccc(F)c2F)nc2ncsc12 (centres unmarked) [MVH-22]
,94.85 ± 3.70%,,100%,,100%,,94.29 ± 2.32%,,100%,,100%,100%,100%,100%,100%,100%,100%,100%,100%,,CC(CO)Nc1nc(SCc2cccc(F)c2F)nc2nc(N)sc12 (centres unmarked) [MVH-23]
> 15000 nM,<50%,> 15000 nM,<50%,> 15000 nM,<50%,> 15000 nM,<50%,> 15000 nM,<50%,> 15000 nM,<50%,<50%,97.29 ± 1.61%,96.96 ± 5.75%,100%,100%,100%,98.49 ± 1.76%,100%,IC50 ([1]; CXCL8 at EC80): > 15000 nM; IC50 ([2]; CXCL1 at EC80): 2130 ± 340 nM; IC50 ([2]; CXCL2 at EC80): 740 ± 160 nM; IC50 ([2]; CXCL3 at EC80): 2530 ± 150 nM; IC50 ([2]; CXCL5 at EC80): 1330 ± 470 nM; IC50 ([2]; CXCL6 at EC80): 880 ± 470 nM; IC50 ([2]; CXCL7 at EC80): 370 ± 110 nM; IC50 ([2]; CXCL8 at EC80): 2320 ± 720 nM,CCCC(C)CSc1nc(NC(C)CO)c2nn[nH]c2n1 (centres unmarked) [MVH-82]
